Article PMC11752888 (Frontiers in Microbiology, 2025)
pKd: −log10 of the molar value.

Test system: JTY_0672 (TetR family transcriptional regulator) (Mycobacterium bovis BCG Tokyo 172)
Assay: BLI

Molecule	pKd
ATTCATGGTCAGCGCCTTCCCCGGTGATCCGGATTATCTGCAACCGTCAG (double strand) [JTY_3148 promoter, 50 bp WT C13]	5.30
JTY_3148 promoter PCR fragment (biotin)	5.66

Target: T1, JTY_0672 (Mycobacterium tuberculosis, UniProt P96941)
T1 construct: gene Rv0653c
Assay: not given

T1 sequence (P96941 entry or part of it): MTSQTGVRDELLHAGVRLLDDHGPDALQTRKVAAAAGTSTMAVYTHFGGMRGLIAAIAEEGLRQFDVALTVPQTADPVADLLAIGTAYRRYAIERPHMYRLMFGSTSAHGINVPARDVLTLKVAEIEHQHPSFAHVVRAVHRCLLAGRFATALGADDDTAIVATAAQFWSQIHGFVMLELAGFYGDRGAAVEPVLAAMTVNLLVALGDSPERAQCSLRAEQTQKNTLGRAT

Molecule	concentration influencing DNA binding
N[C@@H](CC(=O)O)C(=O)O [Asp]	20 mM
N[C@@H](CS)C(=O)O [Cys]	4 mM
N[C@@H](CCC(=O)O)C(=O)O [Glu]	20 mM
N[C@@H](Cc1cnc[nH]1)C(=O)O [His]	40 mM
Cc1ncc(C[n+]2csc(CCO)c2C)c(N)n1 [VB1]	8 mM
O=C(O)c1cccnc1 [VB3]	8 mM
O=C1O[C@H]([C@@H](O)CO)C(O)=C1O [VC]	4 mM
